Data: patent US20140004075A1, “PHEROMONE COMPOSITION” (The New Zealand Institute for Plant and Food Research …, priority 2010, published 2014)

System: Epiphyas postvittana
Test: Large Vineyard Trial 2 (disruption of catch to four component lures)
Assay type: in vivo
Details: added at 4:1 ratio E11-14:Ac to Z11-14:Ac (Blends 4, 5)
Procedure: All compounds used as authentic standards in the chromatographic analysis or in the field trapping experiments were >97% pure by GC analysis and stored at −80° C. until used. Samples of E11-14:Ac, E9E11-14:Ac, E11-14:OH and E11-16:Ac were purchased from Plant Research International, Wageningen, The Netherlands. All blends of synthetic compounds were applied to the large “well” of red rubber septa (West Pharmaceutical Services, Kearney, N.E., USA) in 200 μl of n-hexane GR (Merck Ltd, New Zealand). The solvent was allowed to evaporate in a fume hood and the septa were stored in heat-sealed foil bags at −20° C. until ready for use. For traps used in assessing disruption, lures contained the four component lure at 1 mg loading with the blends shown in Table 1. […]
Traps were maintained weekly as a short central row transect in each case, with 3 traps containing the four component lure. […] For both trials, the number of moths in the traps was recorded each week. […]
For both Large Vineyard Trials 1 and 2, counts for each date were analysed. In addition, the total pre-treatment and post-treatment counts were analysed. […] Random effects assessed were blocks (replicates), plots within blocks, and spatial position (rows and column as in the Trial plans). In addition to the treatments, for the post-treatment counts, a co-variate for the trap counts in the last pre-treatment week was assessed as a fixed effect. […]

SMILES: CC/C=C\CCCCCCCCCCOC(C)=O [Z11-14:Ac, (Z)-11-tetradecenyl acetate]
- effect of the inhibitor on disruption: antagonistic to disruption
